Experimental data from patent US7776833B2, “Use of cyclic bioisosters of purine system derivatives for treating diseases produced by disorders of niterergic and dopaminergic systems” (priority 2003, dated 2010).

Experiments:
Assay type in all cases: in vivo, Wistar rats
[1] = test system: physical dependence from morphine (morphine abstinence); assay: Morphine abstinence syndrome, signs scored in the open field test; conditions: Morphine − (morphine + compound); compound 3 x 20 mg/kg intramuscularly; one value for the three compounds
Procedure: Thirty six hours after the last injection selected motor and autonomice parameters which are specific symptoms of abstinence were monitored in the <<open field>> test (an arena with a diameter of 120 cm and wall height of 40 cm).
Med., 2002, V.29, p.1-6.). The observable signs were recorded quantitatively (if it was possible) with further assignment of an index to each sign (depending on the specific feature of the sign) and calculation of the sum of scores. The expression of the abstinence syndrome was presented as a sum of scores. The results were processed using nonparametric statistical analysis based on the Mann-Whitney test.

[2] = test system: nitrites and nitrates (NOx-); assay: Measurement of nitrates/nitrites (NOx-) in brain regions after the morphine abstinence experiment; conditions: 3 x 20 mg/kg intramuscularly
Procedure: (§1) After the above experiments the rat brains were isolated and immediately placed in the ice cold 0.9% solution of sodium chloride. After cooling the following structures were isolated from the brain: cerebral cortex, hippocampus, mesencephalon, striatum, brainstem, hypothalamus and cerebellum. The isolated tissue was homogenized in a Potter S homogenizer for 3 minutes at 1500 rpm in 4-5 volumes of 20 mM HEPES (pH 7.5) at 4° C. The supernatants were centrifuged for 30 minutes at 11000 g at 4° C., and aliquots of the obtained supernatants were taken for determining nitrates and nitrites (NOx-), while the remaining part was mixed with cooled 20 mM of HEPES (pH 7.5), containing 0.5 mM ethylenediamine tetraacetate (EDTA), 1 mM dithiotreitol (DDT), 1 mM phenylmethylsulfonyl fluoride (PMSF), aprotinine and leupeptine at a concentration of 5 μg/ml, this mixture being used for determining nitric oxide synthase (NOS) activity.
To estimate the intensity of metabolism of nitric oxide in rats, quantitative determination of stable metabolites of nitrogen oxide-nitrites and nitrates (NOx-) was performed using a fluorometric method by fluorescence of naphthotriazole, a product of reaction of 2,3- diaminonaphthalene (DAN) and nitrite in an acidic medium (Misko T. R., Schilling R. J., Salvemini D. et al. A fluorometric assay for the measurement of nitrite in biological samples. Anal. Biochem., 1993, V. 214, p.11-16) with modifications (Lei B., Adachi N., Nagaro T., Arai T. Measurement of total nitric oxide metabolite (NO (x) (-)) levels in vivo. Brain. Res. Protoc., 1999, V. 4, p. 415-419).
The supernatants of brain deproteinized at 100° C. were placed in a nitrite recovery system containing 0.125 unit/ml of nitrate reductase, 25 μM NADPH and 25 μM FAD prepared in 20 mM Tris-HCl buffer pH 7.6 and incubated for 30 minutes at 37° C. For oxidation of NADPH a lactate dehydrogenase (LDH)/pyruvate system was used. Then 316.0 μM DAN solution in 0.62 M HCl was added and the mixture was incubated for 10 minutes in dark. For stabilization of fluorescence of the formed naphthotriazole, 280 mM NaOH was added. The fluorescence intensity was measured using spectrofluorometer Hitachi F-3000 at a wavelength of excitation 365 nm and emission 405 nm. To calculate the concentration of NOx- in the brain a standard solution of sodium nitrate was used. The concentration of NOx- was expressed in nmol/mg of protein.
(§2) The content of protein in the samples was determined by the Bradford method (Bradford M. M. A rapid and sensitive method for quantitation of microgram quantities of protein using the principle of protein binding . Anal. Biochem., 1976, V. 72, p. 248-254) using Coumassi dye. The statistical analysis was performed using methods appropriate for respective experiments. The data are expressed as mean±standard error of mean.

[3] = test system: nitric oxide synthase (NOS); assay: Nitric oxide synthase activity in brain regions, radiometric [3H]L-citrulline method; conditions: 3 x 20 mg/kg intramuscularly
Procedure: as §1
The activity of nitric oxide synthase (NOS) was determined using a radiometric method by the rate of L-citrulline accumulation in a reaction of [^3H] L-arginine oxidation catalyzed by NOS (Bredt M., Snyder S. Nitric oxide mediates glutamate-linked enhancement of cGMP levels in the cerebellum. Proc. Natl. Acad. Sci., USA, 1989, V.86, p.9030-9033). The formation of L-citrulline in this reaction is equivalent to a biosynthesis of nitric oxide.
The reaction was initiated by adding brain supernatant in the reaction medium containing 2 μCi/ml of [3H] L-arginine, 20 mM HEPES (pH 7.4), 0.2 mM CaCl2, 5 μM FAD, 5 μM FMN, 1 mM NADPH, 50 μM of BH4. After 15-60 minutes of incubation at 37° C. a suspension of Dowex 50WX8-400 (Na^+-form), which sorbs unreacted [^3H]L-arginine, but not [^3H] L-citrulline was added to the samples. After the sorption the radioactivity of the samples was determined on a scintillation counter SL-4000 (“Intertechnique”). The activity of Ca^2+-dependent and Ca^2+-independent NOS isoforms was determined by the difference of rates of [^3H]L-citrulline formation in three parallel samples containing 2 mM EDTA (Ca^2+ chelator), 2 mM EDTA+2 mM L-NAME (inhibitor all NOS isoforms) or without inhibitors. The enzyme activity was expressed in rnol [^3H]L-citrulline acumulated per 1 minute on 1 mg of supernatant protein.
as §2

[4] = Groups Nos. 3-14, compound without morphine, one value for all 12 compounds
[5] = Morphine + compound, one value for the three compounds

Structure (SMILES)	Authentic differences (ξ-square criterion) in appearance of signs of abstinence: <<Wet dog>> shakes [1]	Authentic differences (ξ-square criterion) in appearance of signs of abstinence: Aggression [1]	Authentic differences (ξ-square criterion) in appearance of signs of abstinence: Convulsions [1]	Authentic differences (ξ-square criterion) in appearance of signs of abstinence: Diarrhea [1]	Authentic differences (ξ-square criterion) in appearance of signs of abstinence: Dyspnea [1]	Authentic differences (ξ-square criterion) in appearance of signs of abstinence: Forelimb jogging [1]	Authentic differences (ξ-square criterion) in appearance of signs of abstinence: Grit with teeth [1]	Authentic differences (ξ-square criterion) in appearance of signs of abstinence: Mastication [1]	Authentic differences (ξ-square criterion) in appearance of signs of abstinence: Piloerection [1]	Authentic differences (ξ-square criterion) in appearance of signs of abstinence: Ptosis [1]	Authentic differences (ξ-square criterion) in appearance of signs of abstinence: Rhinorrhea [1]	Authentic differences (ξ-square criterion) in appearance of signs of abstinence: Squeak when touched [1]	Nitrites, brainstem [2, 4]	Nitrites, cerebellum [2, 4]	Nitrites, cerebral cortex [2, 4]	Nitrites, hippocampus [2, 4]	Nitrites, hypothalamus [2, 4]	Nitrites, midbrain [2, 4]	Nitrites, striatum [2, 4]	Nitrites, brainstem [2, 5]	other results
Nc1ccc2c(=O)n([C@@H]3O[C@H](CO)[C@@H](O)[C@H]3O)[nH]c(=O)c2c1.[Na] [Compound 11, sodium salt of 6-amino-2-(β-D-ribofuranosile)benzo[d]-3H-pyridazine-1,4-dione]	0.7562	0.8456	0.7546	0.0032	0.0834	0.8217	0.8652	0.1032	0.2567	0.0320	0.4032	0.1342	6.31 ± 0.58 nmol/mg of protein	6.66 ± 0.63 nmol/mg of protein	4.31 ± 0.37 nmol/mg of protein	6.47 ± 0.72 nmol/mg of protein	6.77 ± 0.83 nmol/mg of protein	6.65 ± 0.70 nmol/mg of protein	6.11 ± 0.29 nmol/mg of protein	6.99 ± 0.82 nmol/mg of protein	Nitrites, cerebellum [2, 5]: 5.85 ± 0.47 nmol/mg of protein; Nitrites, cerebral cortex [2, 5]: 4.93 ± 0.39 nmol/mg of protein; Nitrites, hippocampus [2, 5]: 5.24 ± 0.49 nmol/mg of protein; Nitrites, hypothalamus [2, 5]: 6.91 ± 0.58 nmol/mg of protein; Nitrites, midbrain [2, 5]: 5.75 ± 0.39 nmol/mg of protein; Nitrites, striatum [2, 5]: 3.57 ± 0.42 nmol/mg of protein; Activity of NOS, hippocampus [3, 4]: 3.09 ± 0.16 nmol/min/mg of protein; Activity of NOS, hypothalamus [3, 4]: 5.45 ± 0.24 nmol/min/mg of protein; Activity of NOS, midbrain [3, 4]: 2.60 ± 0.29 nmol/min/mg of protein; Activity of NOS, striatum [3, 4]: 1.26 ± 0.08 nmol/min/mg of protein; Activity of NOS, hippocampus [3, 5]: 2.51 ± 0.19 nmol/min/mg of protein; Activity of NOS, hypothalamus [3, 5]: 5.36 ± 0.33 nmol/min/mg of protein; Activity of NOS, midbrain [3, 5]: 1.99 ± 0.29 nmol/min/mg of protein; Activity of NOS, striatum [3, 5]: 1.29 ± 0.09 nmol/min/mg of protein
O=C([O-])c1ccc2c(=O)[nH][nH]c(=O)c2c1.O=C([O-])c1ccc2c(=O)[nH][nH]c(=O)c2c1.[Na+].[Na+] [Compound 18, disodium salt of 6-carboxy-benzo [d]-3H-pyridazine-1,4-dione]	0.7562	0.8456	0.7546	0.0032	0.0834	0.8217	0.8652	0.1032	0.2567	0.0320	0.4032	0.1342	6.31 ± 0.58 nmol/mg of protein	6.66 ± 0.63 nmol/mg of protein	4.31 ± 0.37 nmol/mg of protein	6.47 ± 0.72 nmol/mg of protein	6.77 ± 0.83 nmol/mg of protein	6.65 ± 0.70 nmol/mg of protein	6.11 ± 0.29 nmol/mg of protein	6.99 ± 0.82 nmol/mg of protein	Nitrites, cerebellum [2, 5]: 5.85 ± 0.47 nmol/mg of protein; Nitrites, cerebral cortex [2, 5]: 4.93 ± 0.39 nmol/mg of protein; Nitrites, hippocampus [2, 5]: 5.24 ± 0.49 nmol/mg of protein; Nitrites, hypothalamus [2, 5]: 6.91 ± 0.58 nmol/mg of protein; Nitrites, midbrain [2, 5]: 5.75 ± 0.39 nmol/mg of protein; Nitrites, striatum [2, 5]: 3.57 ± 0.42 nmol/mg of protein; Activity of NOS, hippocampus [3, 4]: 3.09 ± 0.16 nmol/min/mg of protein; Activity of NOS, hypothalamus [3, 4]: 5.45 ± 0.24 nmol/min/mg of protein; Activity of NOS, midbrain [3, 4]: 2.60 ± 0.29 nmol/min/mg of protein; Activity of NOS, striatum [3, 4]: 1.26 ± 0.08 nmol/min/mg of protein; Activity of NOS, hippocampus [3, 5]: 2.51 ± 0.19 nmol/min/mg of protein; Activity of NOS, hypothalamus [3, 5]: 5.36 ± 0.33 nmol/min/mg of protein; Activity of NOS, midbrain [3, 5]: 1.99 ± 0.29 nmol/min/mg of protein; Activity of NOS, striatum [3, 5]: 1.29 ± 0.09 nmol/min/mg of protein
